Entries after “also recorded” stand apart in the source; their conditions may differ.
Key:
[1] = test system: Pseudomonas sp. ATCC 21438 (Facultative); experiment: sec-alcohols to ketones by resting cell suspensions; format: cell-based
Procedure: (§1) The pH of the nutrient medium was adjusted to 7.0 by the addition of acid or base and 50 ml. samples of the nutrient medium were charged into a plurality of 300 ml. shaker flasks. The shaker flasks were inoculated with an inoculating loop of cells from an agar plate containing homogeneous colonies of the microorganisms on the plate (the purity of the isolates was confirmed by microscopic examination). The isolates had been maintained on methanol (0.4% V/V) agar plates or on agar plates under an atmosphere of methane and air having a 1:1 V/V gas ratio which had been transferred every two weeks. For growth on methanol, the medium was supplemented with 0.4% methanol. For growth on methane, the gaseous phase of the inoculated flasks was replaced with a gas mixture comprised of methane and air having a ratio of 1:1 on a V/V basis. The inoculated flasks were sealed air-tight and were incubated on a rotary shaker of orbital radius 2.5 cm. at 250 rpm and at 30° C. for two days until turbidity in the medium had developed. The cells were harvested by centrifugation at 10,000×g. at 4° C. for 30 minutes. The cell pellet was washed twice with a 0.05 M phosphate buffer at a pH of 7.0 (containing 0.02 M MgCl2). The washed cells were then suspended in a 0.05 M phosphate buffer at pH 7.0.
(§2) A 0.5 ml. sample of each washed cell suspension (2 mg. cells) was put into 10 ml. vials at 4° C. which were sealed with a rubber cap. The gaseous phase of the vials was removed with vacuum and then was replaced with a gas mixture of the substrate reactant (i.e., alkane or secondary alcohol) and oxygen at a 1:1 V/V ratio. (In the case of a liquid substrate, i.e., secondary alcohol, 10 μl of the substrate was put in the 10 ml. vials). […] Samples of product (1-3 μl) were withdrawn periodically with a microsyringe and the products were analyzed by gas chromatography (ionization flame detector column).
(§3) The procedure in Example 1 was repeated except that a plurality of methanol-utilizing methylotrophic microorganisms were each aerobically grown in a methanol-containing nutrient medium instead of a methane-containing medium. The nutrients in the medium were the same as indicated in Example 1 except that 0.4% V/V methanol was used as the alcohol dehydrogenase inducer and as the major carbon and energy source for growth. The cells were harvested and washed as described in Example 1. The resting microbial cells of the induced methanol-grown methanol-utilizing methylotrophic microorganisms were then contacted with C3 -C6 secondary alcohols in a buffered solution by the procedure of Example 1.
(§4) The procedure in Example 1 was repeated except that the methylotrophic microorganisms were each aerobically grown in an alcohol dehydrogenase-inducing growth medium containing methylamine or methyl formate as the alcohol dehydrogenase enzyme inducer and growth substrate instead of methane. The nutrients in the medium were the same as indicated in Example 1 except that 0.4% V/V of the alcohol dehydrogenase-inducer growth substrate was used as the major carbon and energy source. The cells were harvested and washed as described in Example 1. The resting microbial cells were then contacted with C3 -C6 secondary alcohols in a buffered solution by the conversion procedure of Example 1.

[2] = test system: Methanomonas methylovora ATCC 21852 (Obligate); experiment: as above; format: cell-based
Procedure: as §1, §2, §3, §4

[3] = test system: cell suspensions of C1-utilizers; experiment: studies on production of 2-butanone from 2-butanol by cell suspensions of the strains tested; format: cell-based; conditions: for rate of oxidation of secondary alcohols by strains of C1-utilizers: cell suspensions
From the text: The following summarizes tests conducted on the optimal conditions for the production of methyl ketones from C3 -C6 sec. alcohols.
The substrate specificity for the oxidation of C3 -C6 secondary alcohols by the strains of C1 -utilizers was studied.

[4] = test system: cell extracts (NAD+-dependent secondary alcohol dehydrogenase); experiment: sec-alcohols to methyl ketones by cell extracts of yeasts, gas chromatography; format: biochemical, Torulopsis sp. strain A1 NRRL-Y-11,419; conditions: grown on methanol
[5] = test system: secondary alcohol dehydrogenase (SADH), cell-free soluble extract; experiment: oxidation of sec-alcohols by cell-free soluble extracts; format: biochemical, Methylosinus trichosporium OB3b (NRRL B-11,196); conditions: for Oxidation Rate, sec-alcohol to corresponding ketone: soluble crude extract, grown on methanol
Procedure: (§5) To prepare the cell-free secondary alcohol dehydrogenase (SADH) system, the washed cells were disrupted with a Wave Energy Ultrasonic Oscillator, Model W201 (Wave Energy System, Inc., Newtown, Pa.) and centrifuged at 20,000×g. for 30 minutes. […] The enzyme activity was measured with a fluorescence spectrophotometer (Perkin Elmer, Model MPF 44A) by following the formation of reduced NAD (EX 340 nm, Em 460 nm). The formation of reduced NAD was also followed with an absorption spectrophotometer at 340 nm. The assay system (3 ml.) contained: potassium phosphate buffer pH 7.0; 150 μmol.; NAD 1 μmol.; a given amount of enzyme preparation; and secondary alcohol 10 μmol. The reaction was started by the addition of substrate. One unit of enzyme activity represents the reduction of one μmole NAD per minute. Protein concentrations were determined by the Lowry method (J. Biol. Chem., 193: 255-275 (1951)).
(§6) The experimental procedure for the tests reported in Table VIII were as follows: 1 mg protein of crude extract was added into a 0.5 ml. 0.05 M phosphate buffer (pH 7.0) in a 10-ml. vial. […] The reaction mixture was incubated at 30° C. on a water bath. A 3 μl sample was removed with a syringe at 15 min. of incubation and was assayed with g.l.c. Catalytic activity was also assayed by fluorescence spectrophotometry.

[6] = test system: cell extracts (NAD+-dependent secondary alcohol dehydrogenase); experiment: sec-alcohols to methyl ketones by cell extracts of yeasts, gas chromatography; format: biochemical, Kloeckera sp. strain A2 NRRL-Y-11,420; conditions: grown on methanol
[7] = test system: Hansenula polymorpha ATCC 26012; experiment: sec-alcohols to ketones by cell suspensions of yeasts; format: cell-based
[8] = test system: Torulopsis sp. Strain A1 (NRRLY-11,419); experiment: as above; format: cell-based
[9] = test system: Kloeckera sp. Strain A2 (NRRLY-11,420); experiment: as above; format: cell-based
[10] = test system: secondary alcohol dehydrogenase (SADH), cell-free soluble extract; experiment: oxidation of sec-alcohols by cell-free soluble extracts; format: biochemical, Methylococcus capsulatus CRL M1 (NRRL B-11,219); conditions: for Oxidation Rate, sec-alcohol to corresponding ketone: soluble crude extract, grown on methanol
Procedure: as §5, §6

CCC(C)O (stereo not shown) [2-Butanol, 2-butanol]
Conversion Rates, sec-alcohol to corresponding ketone ([1]; methanol-grown cells): 3.2 μmoles/hr/mg protein
Conversion Rates, sec-alcohol to corresponding ketone ([1]; methyl formate-grown cells): 3.2 μmoles/hr/mg protein
Conversion Rates, sec-alcohol to corresponding ketone ([1]; methylamine-grown cells): 2.1 μmoles/hr/mg protein
Conversion Rates, sec-alcohol to corresponding ketone ([2]; methanol-grown cells): 2.5 μmoles/hr/mg protein
Conversion Rates, sec-alcohol to corresponding ketone ([2]; methyl formate-grown cells): 2.1 μmoles/hr/mg protein
Conversion Rates, sec-alcohol to corresponding ketone ([2]; methylamine-grown cells): 3.2 μmoles/hr/mg protein
rate of oxidation of secondary alcohols by strains of C1-utilizers [3]: highest rate; also recorded: higher rates
2-butanol concentration supporting maximum 2-butanone production ([3]; cell suspensions of yeast and Pseudomonas sp. ATCC 21,439, 35 min. incubation): about 50 μmoles
Conversion Rate, sec-alcohol to methyl ketone [4]: 4.9 μmoles/hr/mg Protein
Conversion Rate, 2-butanol to 2-butanone ([5]; Growth Substrate CH3 NH2): 2.5 nmoles/min/mg protein
Conversion Rate, 2-butanol to 2-butanone ([5]; Growth Substrate CH3 OH): 2.4 nmoles/min/mg protein
Conversion Rate, 2-butanol to 2-butanone ([5]; Growth Substrate CH4): 4.5 nmoles/min/mg protein
Conversion Rate, 2-butanol to 2-butanone ([5]; Growth Substrate HCOOCH3): 2.0 nmoles/min/mg protein
Oxidation Rate, sec-alcohol to corresponding ketone [5]: 2.4 nmole/min/mg protein
Conversion Rate, sec-alcohol to methyl ketone [6]: 5.9 μmoles/hr/mg Protein
Conversion Rate, sec-alcohol to corresponding ketone ([7]; Growth Substrate Ethanol): 4.8 μmoles/hr/mg of protein
Conversion Rate, sec-alcohol to corresponding ketone ([7]; Growth Substrate Methanol): 5.8 μmoles/hr/mg of protein
Conversion Rate, sec-alcohol to corresponding ketone ([7]; Growth Substrate Methylamine): 4.5 μmoles/hr/mg of protein
Conversion Rate, sec-alcohol to corresponding ketone ([7]; Growth Substrate Methylformate): 5.2 μmoles/hr/mg of protein
Conversion Rate, sec-alcohol to corresponding ketone ([7]; Growth Substrate Propylamine): 4.0 μmoles/hr/mg of protein
Conversion Rate, sec-alcohol to corresponding ketone ([8]; Growth Substrate Ethanol): 4.7 μmoles/hr/mg of protein
Conversion Rate, sec-alcohol to corresponding ketone ([8]; Growth Substrate Methanol): 4.9 μmoles/hr/mg of protein
Conversion Rate, sec-alcohol to corresponding ketone ([8]; Growth Substrate Methylamine): 4.5 μmoles/hr/mg of protein
Conversion Rate, sec-alcohol to corresponding ketone ([8]; Growth Substrate Methylformate): 4.9 μmoles/hr/mg of protein
Conversion Rate, sec-alcohol to corresponding ketone ([8]; Growth Substrate Propylamine): 3.8 μmoles/hr/mg of protein
Conversion Rate, sec-alcohol to corresponding ketone ([9]; Growth Substrate Ethanol): 5.7 μmoles/hr/mg of protein
Conversion Rate, sec-alcohol to corresponding ketone ([9]; Growth Substrate Methanol): 5.9 μmoles/hr/mg of protein
Conversion Rate, sec-alcohol to corresponding ketone ([9]; Growth Substrate Methylamine): 5.4 μmoles/hr/mg of protein
Conversion Rate, sec-alcohol to corresponding ketone ([9]; Growth Substrate Methylformate): 5.9 μmoles/hr/mg of protein
Conversion Rate, sec-alcohol to corresponding ketone ([9]; Growth Substrate Propylamine): 4.2 μmoles/hr/mg of protein
Conversion Rate, 2-butanol to 2-butanone ([10]; Growth Substrate CH3 NH2): 1.8 nmoles/min/mg protein
Conversion Rate, 2-butanol to 2-butanone ([10]; Growth Substrate CH3 OH): 2.0 nmoles/min/mg protein
Conversion Rate, 2-butanol to 2-butanone ([10]; Growth Substrate CH4): 3.2 nmoles/min/mg protein
Conversion Rate, 2-butanol to 2-butanone ([10]; Growth Substrate HCOOCH3): 2.0 nmoles/min/mg protein
Oxidation Rate, sec-alcohol to corresponding ketone [10]: 2.0 nmole/min/mg protein

CCCCC(C)O (stereo not shown) [2-Hexanol, 2-hexanol]
Conversion Rates, sec-alcohol to corresponding ketone ([1]; methanol-grown cells): 0.7 μmoles/hr/mg protein
Conversion Rates, sec-alcohol to corresponding ketone ([1]; methyl formate-grown cells): 0.80 μmoles/hr/mg protein
Conversion Rates, sec-alcohol to corresponding ketone ([1]; methylamine-grown cells): 0.07 μmoles/hr/mg protein
Conversion Rates, sec-alcohol to corresponding ketone ([2]; methanol-grown cells): 1.0 μmoles/hr/mg protein
Conversion Rates, sec-alcohol to corresponding ketone ([2]; methyl formate-grown cells): 0.60 μmoles/hr/mg protein
Conversion Rates, sec-alcohol to corresponding ketone ([2]; methylamine-grown cells): 0.09 μmoles/hr/mg protein
rate of oxidation of secondary alcohols by strains of C1-utilizers [3]: much slower rate
Conversion Rate, sec-alcohol to methyl ketone [4]: 0.21 μmoles/hr/mg Protein
Oxidation Rate, sec-alcohol to corresponding ketone [5]: 0 nmole/min/mg protein
Conversion Rate, sec-alcohol to methyl ketone [6]: 0.25 μmoles/hr/mg Protein
Conversion Rate, sec-alcohol to corresponding ketone ([7]; Growth Substrate Ethanol): 0.54 μmoles/hr/mg of protein
Conversion Rate, sec-alcohol to corresponding ketone ([7]; Growth Substrate Methanol): 0.72 μmoles/hr/mg of protein
Conversion Rate, sec-alcohol to corresponding ketone ([7]; Growth Substrate Methylamine): 0.62 μmoles/hr/mg of protein
Conversion Rate, sec-alcohol to corresponding ketone ([7]; Growth Substrate Methylformate): 0.70 μmoles/hr/mg of protein
Conversion Rate, sec-alcohol to corresponding ketone ([7]; Growth Substrate Propylamine): 0.48 μmoles/hr/mg of protein
Conversion Rate, sec-alcohol to corresponding ketone ([8]; Growth Substrate Ethanol): 0.20 μmoles/hr/mg of protein
Conversion Rate, sec-alcohol to corresponding ketone ([8]; Growth Substrate Methanol): 0.21 μmoles/hr/mg of protein
Conversion Rate, sec-alcohol to corresponding ketone ([8]; Growth Substrate Methylamine): 0.12 μmoles/hr/mg of protein
Conversion Rate, sec-alcohol to corresponding ketone ([8]; Growth Substrate Methylformate): 0.25 μmoles/hr/mg of protein
Conversion Rate, sec-alcohol to corresponding ketone ([8]; Growth Substrate Propylamine): 0.10 μmoles/hr/mg of protein
Conversion Rate, sec-alcohol to corresponding ketone ([9]; Growth Substrate Ethanol): 0.12 μmoles/hr/mg of protein
Conversion Rate, sec-alcohol to corresponding ketone ([9]; Growth Substrate Methanol): 0.25 μmoles/hr/mg of protein
Conversion Rate, sec-alcohol to corresponding ketone ([9]; Growth Substrate Methylamine): 0.10 μmoles/hr/mg of protein
Conversion Rate, sec-alcohol to corresponding ketone ([9]; Growth Substrate Methylformate): 0.28 μmoles/hr/mg of protein
Conversion Rate, sec-alcohol to corresponding ketone ([9]; Growth Substrate Propylamine): 0.11 μmoles/hr/mg of protein
Oxidation Rate, sec-alcohol to corresponding ketone [10]: 0 nmole/min/mg protein
